Measured values from ChEMBL document CHEMBL2440076, “New triarylpyrazoles as broad-spectrum anticancer agents: design, synthesis, and biological evaluation” (Eur J Med Chem, 2013).

Experiments:
Assay type in all cases: functional
Malme-3M [1] = test: Growth inhibition of human MALME-3M cells assessed as cell growth at 3X10'-6 M after 48 hrs by sulforhodamine B assay; conditions: read-out: Activity
SW-620 = test: Growth inhibition of human SW620 cells assessed as cell growth at 3X10'-5 M after 48 hrs by sulforhodamine B assay; conditions: SW-620, 48 h, read-out: Activity
SR [2] = test: Growth inhibition of human SR cells assessed as cell growth at 3X10'-5 M after 48 hrs by sulforhodamine B assay; conditions: read-out: Activity
SN12C = test: Growth inhibition of human SN12C cells assessed as cell growth at 3X10'-7 M after 48 hrs by sulforhodamine B assay; conditions: read-out: Activity
IGROV-1 = test: Growth inhibition of human IGROV1 cells assessed as cell growth at 3X10'-8 M after 48 hrs by sulforhodamine B assay; conditions: IGROV-1, 48 h, read-out: Activity
NCI-H23 = test: Growth inhibition of human NCI-H23 cells assessed as cell growth at 3X10'-7 M after 48 hrs by sulforhodamine B assay; conditions: NCI-H23, 48 h, read-out: Activity
SK-MEL-5 = test: Growth inhibition of human SK-MEL-5 cells assessed as cell growth at 3X10'-5 M after 48 hrs by sulforhodamine B assay; conditions: SK-MEL-5, 48 h, read-out: Activity
UO-31 [3] = test: Growth inhibition of human UO31 cells assessed as cell growth at 3X10'-8 M after 48 hrs by sulforhodamine B assay; conditions: UO-31, 48 h, read-out: Activity
TK-10 = test: Growth inhibition of human TK10 cells assessed as cell growth at 3X10'-6 M after 48 hrs by sulforhodamine B assay; conditions: TK-10, 48 h, read-out: Activity
UACC-62 = test: Growth inhibition of human UACC62 cells assessed as cell growth at 3X10'-6 M after 48 hrs by sulforhodamine B assay; conditions: UACC-62, 48 h, read-out: Activity
BT-549 = test: Growth inhibition of human BT549 cells assessed as cell growth at 3X10'-6 M after 48 hrs by sulforhodamine B assay; conditions: BT-549, 48 h, read-out: Activity
HCT-15 [4] = test: Growth inhibition of human HCT15 cells assessed as cell growth at 3X10'-8 M after 48 hrs by sulforhodamine B assay; conditions: HCT-15, 48 h, read-out: Activity
CAKI-1 = test: Growth inhibition of human CAKI-1 cells assessed as cell growth at 3X10'-5 M after 48 hrs by sulforhodamine B assay; conditions: CAKI-1, 48 h, read-out: Activity
NCI-H522 = test: Growth inhibition of human NCI-H522 cells assessed as cell growth at 3X10'-7 M after 48 hrs by sulforhodamine B assay; conditions: NCI-H522, 48 h, read-out: Activity
SF-268 [5] = test: Growth inhibition of human SF268 cells assessed as cell growth at 3X10'-6 M after 48 hrs by sulforhodamine B assay; conditions: SF-268, 48 h, read-out: Activity
NCI-H322M [6] = test: Growth inhibition of human NCI-H322M cells assessed as cell growth at 3X10'-8 M after 48 hrs by sulforhodamine B assay; conditions: read-out: Activity
MOLT-4 = test: Growth inhibition of human MOLT4 cells assessed as cell growth at 3X10'-7 M after 48 hrs by sulforhodamine B assay; conditions: MOLT-4, 48 h, read-out: Activity
UO-31 [7] = test: Growth inhibition of human UO31 cells assessed as cell growth at 3X10'-9 M after 48 hrs by sulforhodamine B assay; conditions: UO-31, 48 h, read-out: Activity
SR [8] = test: Growth inhibition of human SR cells assessed as cell growth at 3X10'-8 M after 48 hrs by sulforhodamine B assay; conditions: read-out: Activity
NCI-H460 = test: Growth inhibition of human NCI-H460 cells assessed as cell growth at 3X10'-5 M after 48 hrs by sulforhodamine B assay; conditions: NCI-H460, 48 h, read-out: Activity
SF-268 [9] = test: Growth inhibition of human SF268 cells assessed as cell growth at 3X10'-7 M after 48 hrs by sulforhodamine B assay; conditions: SF-268, 48 h, read-out: Activity
HT-29 = test: Growth inhibition of human HT-29 cells assessed as cell growth at 3X10'-7 M after 48 hrs by sulforhodamine B assay; conditions: HT-29, 48 h, read-out: Activity
Malme-3M [10] = test: Growth inhibition of human MALME-3M cells assessed as cell growth at 3X10'-9 M after 48 hrs by sulforhodamine B assay; conditions: read-out: Activity
RXF 393 = test: Growth inhibition of human RXF393 cells assessed as cell growth at 3X10'-6 M after 48 hrs by sulforhodamine B assay; conditions: RXF 393, 48 h, read-out: Activity
OVCAR-4 = test: Growth inhibition of human OVCAR4 cells assessed as cell growth at 3X10'-7 M after 48 hrs by sulforhodamine B assay; conditions: OVCAR-4, 48 h, read-out: Activity
HCT-15 [11] = test: Growth inhibition of human HCT15 cells assessed as cell growth at 3X10'-5 M after 48 hrs by sulforhodamine B assay; conditions: HCT-15, 48 h, read-out: Activity
COLO 205 = test: Growth inhibition of human COLO205 cells assessed as cell growth at 3X10'-9 M after 48 hrs by sulforhodamine B assay; conditions: COLO 205, 48 h, read-out: Activity
786-0 = test: Growth inhibition of human 786-0 cells assessed as cell growth at 3X10'-7 M after 48 hrs by sulforhodamine B assay; conditions: 786-0, 48 h, read-out: Activity
HL-60(TB) = test: Growth inhibition of human HL-60(TB) cells assessed as cell growth at 3X10'-9 M after 48 hrs by sulforhodamine B assay; conditions: HL-60, 48 h, read-out: Activity
NCI-H322M [12] = test: Growth inhibition of human NCI-H322M cells assessed as cell growth at 3X10'-5 M after 48 hrs by sulforhodamine B assay; conditions: read-out: Activity
[13] = Growth inhibition of human HCC2998 cells assessed as cell growth at 3X10'-8 M after 48 hrs by sulforhodamine B assay; conditions: HCC 2998, 48 h, read-out: Activity
NCI-H322M [14] = test: Growth inhibition of human NCI-H322M cells assessed as cell growth at 3X10'-6 M after 48 hrs by sulforhodamine B assay; conditions: read-out: Activity
OVCAR-5 = test: Growth inhibition of human OVCAR5 cells assessed as cell growth at 3X10'-5 M after 48 hrs by sulforhodamine B assay; conditions: OVCAR-5, 48 h, read-out: Activity
SF-268 [15] = test: Growth inhibition of human SF268 cells assessed as cell growth at 3X10'-5 M after 48 hrs by sulforhodamine B assay; conditions: SF-268, 48 h, read-out: Activity
A498 = test: Growth inhibition of human A498 cells assessed as cell growth at 3X10'-9 M after 48 hrs by sulforhodamine B assay; conditions: A498, 48 h, read-out: Activity

Row | Compound | growth at 3 µM (Malme-3M [1]) | growth at 30 µM (SW-620) | growth at 30 µM (SR [2]) | growth at 0.3 µM (SN12C) | growth at 0.03 µM (IGROV-1) | growth at 0.3 µM (NCI-H23) | growth at 30 µM (SK-MEL-5) | growth at 0.03 µM (UO-31 [3]) | growth at 3 µM (TK-10) | growth at 3 µM (UACC-62) | growth at 3 µM (BT-549) | growth at 0.03 µM (HCT-15 [4]) | growth at 30 µM (CAKI-1) | growth at 0.3 µM (NCI-H522) | growth at 3 µM (SF-268 [5]) | growth at 0.03 µM (NCI-H322M [6]) | growth at 0.3 µM (MOLT-4) | growth at 0.003 µM (UO-31 [7]) | growth at 0.03 µM (SR [8]) | growth at 30 µM (NCI-H460) | also measured
1 | COc1cc(-c2nn(-c3cccc(NC(=O)Nc4ccc(Cl)c(C(F)(F)F)c4)c3)cc2-c2ccncc2)ccc1Cl | -16% | -1% | -12% | 91% | 102% | 97% | -94% | 89% | 25% | -21% | 40% | 97% | -20% | 100% | 25% | 93% | 90% | 92% | 107% | -28% | growth at 0.3 µM (SF-268 [9]): 97%; growth at 0.3 µM (HT-29): 102%; growth at 0.003 µM (Malme-3M [10]): 112%; growth at 3 µM (RXF 393): 20%; growth at 0.3 µM (OVCAR-4): 96%; growth at 30 µM (HCT-15 [11]): -35%; growth at 0.003 µM (COLO 205): 106%; growth at 0.3 µM (786-0): 101%; growth at 0.003 µM (HL-60(TB)): 101%; growth at 30 µM (NCI-H322M [12]): -17%; growth at 0.03 µM [13]: 107%; growth at 3 µM (NCI-H322M [14]): 29%; growth at 30 µM (OVCAR-5): -43%; growth at 30 µM (SF-268 [15]): -31%; growth at 0.003 µM (A498): 90%
2 | O=C(Nc1cccc(-n2cc(-c3ccncc3)c(-c3ccc(Cl)c(O)c3)n2)c1)Nc1cccc(C(F)(F)F)c1 | 37% | 8% | -9% | 99% | 98% | 96% | -90% | 85% | 37% | 33% | 79% | 100% | 2% | 98% | 37% | 95% | 97% | 89% | 99% | -1% | growth at 0.3 µM (SF-268 [9]): 96%; growth at 0.3 µM (HT-29): 111%; growth at 0.003 µM (Malme-3M [10]): 96%; growth at 3 µM (RXF 393): 49%; growth at 0.3 µM (OVCAR-4): 108%; growth at 30 µM (HCT-15 [11]): 6%; growth at 0.003 µM (COLO 205): 101%; growth at 0.3 µM (786-0): 99%; growth at 0.003 µM (HL-60(TB)): 99%; growth at 30 µM (NCI-H322M [12]): 19%; growth at 0.03 µM [13]: 97%; growth at 3 µM (NCI-H322M [14]): 63%; growth at 30 µM (OVCAR-5): 22%; growth at 30 µM (SF-268 [15]): -17%; growth at 0.003 µM (A498): 92%
3 | O=C(Nc1cccc(-n2cc(-c3ccncc3)c(-c3ccc(Cl)c(O)c3)n2)c1)Nc1ccc(Cl)c(Cl)c1 | 10% | 1% | -5% | 101% | 104% | 102% | -95% | 92% | 31% | 14% | 28% | 103% | -9% | 97% | 23% | 100% | 101% | 86% | 98% | -58% | growth at 0.3 µM (SF-268 [9]): 102%; growth at 0.3 µM (HT-29): 110%; growth at 0.003 µM (Malme-3M [10]): 92%; growth at 3 µM (RXF 393): 16%; growth at 0.3 µM (OVCAR-4): 105%; growth at 30 µM (HCT-15 [11]): -1%; growth at 0.003 µM (COLO 205): 100%; growth at 0.3 µM (786-0): 103%; growth at 0.003 µM (HL-60(TB)): 90%; growth at 30 µM (NCI-H322M [12]): 11%; growth at 0.03 µM [13]: 104%; growth at 3 µM (NCI-H322M [14]): 47%; growth at 30 µM (OVCAR-5): 1%; growth at 30 µM (SF-268 [15]): -21%; growth at 0.003 µM (A498): 103%
4 | COc1cc(-c2nn(-c3cccc(NC(=O)c4ccc(Cl)c(C(F)(F)F)c4)c3)cc2-c2ccncc2)ccc1Cl | 20% | 24% | 4% | 93% | 89% | 92% | -51% | 80% | 74% | 40% | 62% | 99% | 12% | 89% | 56% | 90% | 98% | 82% | 98% | 7% | growth at 0.3 µM (SF-268 [9]): 89%; growth at 0.3 µM (HT-29): 93%; growth at 0.003 µM (Malme-3M [10]): 80%; growth at 3 µM (RXF 393): 36%; growth at 0.3 µM (OVCAR-4): 89%; growth at 30 µM (HCT-15 [11]): 25%; growth at 0.003 µM (COLO 205): 101%; growth at 0.3 µM (786-0): 99%; growth at 0.003 µM (HL-60(TB)): 93%; growth at 30 µM (NCI-H322M [12]): 34%; growth at 0.03 µM [13]: 95%; growth at 3 µM (NCI-H322M [14]): 73%; growth at 30 µM (OVCAR-5): 68%; growth at 30 µM (SF-268 [15]): 23%; growth at 0.003 µM (A498): 95%
